For one test, the target named is T1, CK1α (Homo sapiens, UniProt P48729+Q96SW2).
T1 construct: effects of the compounds of the present disclosure on the expression of target proteins in cells; endogenous in cells; host or cells: human PBMCs (Milecell Biotechnologies)
The test can be described thus: Western blot, degradation of substrate protein in hPBMCs. The test is classed as cell-based. Particulars: Western blot, 24 hours of compound treatment, compounds tested at 50 nM and 500 nM (concentration for the table not stated).

A further test addresses T2, IKZF1 (Homo sapiens, UniProt Q13422+Q96SW2).
T2 construct: effects of the compounds of the present disclosure on the expression of target proteins in cells; endogenous in cells; host or cells: human PBMCs (Milecell Biotechnologies)
Described as above. The test is classed as cell-based. The settings on record: Western blot, 24 hours of compound treatment, compounds tested at 50 nM and 500 nM (concentration for the table not stated). Background: A western blot detects proteins with antibodies after separation by electrophoresis.

The target in a further test is T3, IKZF2 (Homo sapiens, UniProt Q96SW2+Q9UKS7).
T3 construct: effects of the compounds of the present disclosure on the expression of target proteins in cells; endogenous in cells; host or cells: human PBMCs (Milecell Biotechnologies)
T3 sequence (Q9UKS7 whole entry): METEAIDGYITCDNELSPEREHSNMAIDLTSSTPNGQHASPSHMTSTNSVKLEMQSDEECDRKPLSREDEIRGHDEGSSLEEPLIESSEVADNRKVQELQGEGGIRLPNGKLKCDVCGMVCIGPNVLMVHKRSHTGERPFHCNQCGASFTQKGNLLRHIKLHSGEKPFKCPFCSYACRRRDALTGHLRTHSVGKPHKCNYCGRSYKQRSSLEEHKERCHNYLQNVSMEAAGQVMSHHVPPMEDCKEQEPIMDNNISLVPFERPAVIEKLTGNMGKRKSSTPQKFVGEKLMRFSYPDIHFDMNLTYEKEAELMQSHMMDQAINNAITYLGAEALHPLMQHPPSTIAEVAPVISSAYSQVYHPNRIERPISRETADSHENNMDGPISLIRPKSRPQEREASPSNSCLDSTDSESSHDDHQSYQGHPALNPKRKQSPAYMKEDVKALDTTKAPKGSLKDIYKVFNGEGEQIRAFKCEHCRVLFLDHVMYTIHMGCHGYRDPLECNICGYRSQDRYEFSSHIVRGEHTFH
T3 sequence (Q96SW2 whole entry): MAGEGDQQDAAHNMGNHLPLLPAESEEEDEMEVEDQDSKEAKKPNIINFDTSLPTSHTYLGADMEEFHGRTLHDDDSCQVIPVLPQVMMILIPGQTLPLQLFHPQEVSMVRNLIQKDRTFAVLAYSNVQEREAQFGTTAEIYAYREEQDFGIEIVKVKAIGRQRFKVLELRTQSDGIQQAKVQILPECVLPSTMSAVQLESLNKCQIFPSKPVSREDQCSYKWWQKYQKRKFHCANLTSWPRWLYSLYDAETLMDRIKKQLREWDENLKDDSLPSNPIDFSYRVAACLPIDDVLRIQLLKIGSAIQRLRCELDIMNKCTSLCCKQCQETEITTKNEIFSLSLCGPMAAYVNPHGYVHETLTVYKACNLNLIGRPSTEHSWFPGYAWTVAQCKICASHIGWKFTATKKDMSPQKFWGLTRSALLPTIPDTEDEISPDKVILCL
T3 sequence (Q16531 whole entry partner): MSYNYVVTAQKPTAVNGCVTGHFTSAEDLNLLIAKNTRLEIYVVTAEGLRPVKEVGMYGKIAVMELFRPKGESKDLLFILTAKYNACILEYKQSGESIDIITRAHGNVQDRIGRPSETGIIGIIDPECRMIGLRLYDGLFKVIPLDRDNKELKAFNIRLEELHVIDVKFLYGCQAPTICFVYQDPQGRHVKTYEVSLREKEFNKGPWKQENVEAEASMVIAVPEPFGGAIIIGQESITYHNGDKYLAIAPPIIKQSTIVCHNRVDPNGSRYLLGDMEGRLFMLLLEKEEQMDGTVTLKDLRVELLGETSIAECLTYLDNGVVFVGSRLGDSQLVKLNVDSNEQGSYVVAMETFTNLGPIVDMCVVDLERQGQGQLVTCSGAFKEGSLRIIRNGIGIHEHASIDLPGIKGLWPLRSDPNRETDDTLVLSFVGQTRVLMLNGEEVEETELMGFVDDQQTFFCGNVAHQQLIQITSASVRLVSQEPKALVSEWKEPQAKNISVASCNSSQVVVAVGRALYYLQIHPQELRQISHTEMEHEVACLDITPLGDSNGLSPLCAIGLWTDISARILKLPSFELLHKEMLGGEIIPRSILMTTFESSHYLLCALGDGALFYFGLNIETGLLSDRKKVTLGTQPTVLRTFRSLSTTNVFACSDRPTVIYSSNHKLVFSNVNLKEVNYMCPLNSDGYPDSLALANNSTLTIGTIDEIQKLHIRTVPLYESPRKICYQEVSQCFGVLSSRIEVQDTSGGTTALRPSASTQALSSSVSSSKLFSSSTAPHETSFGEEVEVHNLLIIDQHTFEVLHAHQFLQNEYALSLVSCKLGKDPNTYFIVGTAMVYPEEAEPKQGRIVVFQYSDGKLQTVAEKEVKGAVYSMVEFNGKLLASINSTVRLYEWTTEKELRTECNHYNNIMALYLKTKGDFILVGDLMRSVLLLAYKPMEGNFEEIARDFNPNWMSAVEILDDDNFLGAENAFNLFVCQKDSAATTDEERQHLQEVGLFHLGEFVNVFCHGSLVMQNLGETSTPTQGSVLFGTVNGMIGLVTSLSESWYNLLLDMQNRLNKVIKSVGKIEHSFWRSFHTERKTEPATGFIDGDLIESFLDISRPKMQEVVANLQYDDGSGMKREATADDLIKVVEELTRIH
The test is described as above. The test is classed as cell-based. Particulars: Western blot, 24 hours of compound treatment, compounds tested at 50 nM and 500 nM (concentration for the table not stated).

The target in another test is T4, IKZF3 (Homo sapiens, UniProt Q96SW2+Q9UKT9).
T4 construct: effects of the compounds of the present disclosure on the expression of target proteins in cells; endogenous in cells; host or cells: human PBMCs (Milecell Biotechnologies)
T4 sequence (Q9UKT9 whole entry): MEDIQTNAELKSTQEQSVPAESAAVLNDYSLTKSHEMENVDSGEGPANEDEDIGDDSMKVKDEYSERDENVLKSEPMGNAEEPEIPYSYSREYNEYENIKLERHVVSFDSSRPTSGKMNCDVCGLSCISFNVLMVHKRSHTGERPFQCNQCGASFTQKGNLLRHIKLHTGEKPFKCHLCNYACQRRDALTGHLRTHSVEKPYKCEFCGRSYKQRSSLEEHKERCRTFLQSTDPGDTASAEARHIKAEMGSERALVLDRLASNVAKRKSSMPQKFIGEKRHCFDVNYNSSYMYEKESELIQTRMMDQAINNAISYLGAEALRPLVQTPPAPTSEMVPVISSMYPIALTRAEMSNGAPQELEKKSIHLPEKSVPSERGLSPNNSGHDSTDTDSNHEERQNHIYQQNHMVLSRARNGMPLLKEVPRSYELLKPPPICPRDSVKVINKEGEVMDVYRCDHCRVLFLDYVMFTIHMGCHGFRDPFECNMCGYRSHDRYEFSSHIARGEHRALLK
T4 sequence (Q96SW2 whole entry): as the sequence (Q96SW2 whole entry) above
T4 sequence (Q16531 whole entry partner): as the sequence (Q16531 whole entry partner) above
The test is described as above. Particulars: Western blot, 24 hours of compound treatment, compounds tested at 50 nM and 500 nM (concentration for the table not stated). The test is classed as cell-based.

For the next test, the target named is T5, WEE1 (Homo sapiens, UniProt P30291+Q96SW2).
T5 construct: effects of the compounds of the present disclosure on the expression of target proteins in cells; endogenous in cells; host or cells: human PBMCs (Milecell Biotechnologies)
T5 sequence (P30291 whole entry): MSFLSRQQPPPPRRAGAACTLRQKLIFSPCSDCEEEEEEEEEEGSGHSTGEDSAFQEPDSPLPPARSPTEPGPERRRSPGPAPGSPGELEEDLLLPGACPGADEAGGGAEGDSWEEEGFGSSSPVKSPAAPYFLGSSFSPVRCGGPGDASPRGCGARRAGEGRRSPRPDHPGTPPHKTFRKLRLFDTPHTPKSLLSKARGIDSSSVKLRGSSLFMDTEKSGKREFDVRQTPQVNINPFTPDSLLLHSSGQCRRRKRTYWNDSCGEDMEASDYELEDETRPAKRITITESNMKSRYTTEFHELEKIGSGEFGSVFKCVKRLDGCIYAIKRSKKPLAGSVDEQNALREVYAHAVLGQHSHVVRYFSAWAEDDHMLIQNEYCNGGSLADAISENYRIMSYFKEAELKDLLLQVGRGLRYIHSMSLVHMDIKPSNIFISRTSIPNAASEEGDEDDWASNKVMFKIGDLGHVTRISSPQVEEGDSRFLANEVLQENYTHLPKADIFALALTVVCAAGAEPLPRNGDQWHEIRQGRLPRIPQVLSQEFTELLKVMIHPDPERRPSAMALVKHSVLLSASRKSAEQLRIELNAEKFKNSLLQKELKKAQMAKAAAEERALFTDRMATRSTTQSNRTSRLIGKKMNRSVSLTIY
T5 sequence (Q96SW2 whole entry): as the sequence (Q96SW2 whole entry) above
T5 sequence (Q16531 whole entry partner): as the sequence (Q16531 whole entry partner) above
The test is described as above. The test is classed as cell-based. Particulars: Western blot, 24 hours of compound treatment, compounds tested at 50 nM and 500 nM (concentration for the table not stated).

In a further test the test system is GSPT1. Described as above. The settings on record: Western blot, 24 hours of compound treatment, compounds tested at 50 nM and 500 nM (concentration for the table not stated). The test is classed as cell-based, Human.
For test [1], the target named is T6, human Cereblon WT GST-tagged protein (Homo sapiens, UniProt Q96SW2).
T6 construct: purchased CISBIO 64BDCRBNPEH
T6 sequence (Q96SW2 whole entry): as the sequence (Q96SW2 whole entry) above
The test can be described thus: CRBN-binding affinity, HTRF (CEREBLON BINDING kit). The settings on record: for inhibition at 0.5 µM: read-out: Inhibition Rate at 0.5 µM (%); for inhibition at 2 µM: read-out: Inhibition Rate at 2 µM (%).

T2 sequence (Q13422 whole entry): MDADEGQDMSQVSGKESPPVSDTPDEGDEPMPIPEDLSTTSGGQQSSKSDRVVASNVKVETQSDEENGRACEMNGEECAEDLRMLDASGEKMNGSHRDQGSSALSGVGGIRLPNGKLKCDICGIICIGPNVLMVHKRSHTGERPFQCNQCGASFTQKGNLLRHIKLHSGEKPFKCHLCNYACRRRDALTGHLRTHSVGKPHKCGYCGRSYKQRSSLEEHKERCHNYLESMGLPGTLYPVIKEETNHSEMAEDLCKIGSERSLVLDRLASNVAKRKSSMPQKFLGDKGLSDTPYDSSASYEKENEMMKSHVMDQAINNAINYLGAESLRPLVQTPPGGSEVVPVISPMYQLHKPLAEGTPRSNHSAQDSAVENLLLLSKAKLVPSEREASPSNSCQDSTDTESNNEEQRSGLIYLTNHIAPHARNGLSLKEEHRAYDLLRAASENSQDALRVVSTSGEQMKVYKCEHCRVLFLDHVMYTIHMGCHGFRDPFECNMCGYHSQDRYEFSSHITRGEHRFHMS
T2 sequence (Q96SW2 whole entry): as the sequence (Q96SW2 whole entry) above
T2 sequence (Q16531 whole entry partner): as the sequence (Q16531 whole entry partner) above
T1 sequence (P48729 whole entry): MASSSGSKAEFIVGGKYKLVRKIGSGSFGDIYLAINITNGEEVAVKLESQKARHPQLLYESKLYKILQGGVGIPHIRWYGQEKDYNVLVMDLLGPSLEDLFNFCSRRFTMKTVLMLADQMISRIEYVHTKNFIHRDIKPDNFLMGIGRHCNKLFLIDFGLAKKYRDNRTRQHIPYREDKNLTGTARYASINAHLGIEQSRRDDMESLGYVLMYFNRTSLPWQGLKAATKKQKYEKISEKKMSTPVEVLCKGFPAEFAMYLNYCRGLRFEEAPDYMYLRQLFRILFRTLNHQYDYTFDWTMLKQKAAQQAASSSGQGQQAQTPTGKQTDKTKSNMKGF
T1 sequence (Q96SW2 whole entry): as the sequence (Q96SW2 whole entry) above
T1 sequence (Q16531 whole entry partner): as the sequence (Q16531 whole entry partner) above

As a reminder, the inhibition is how much of the control response was suppressed. On to `O=C1CCC(N2Cc3cc(CN4CCN(c5ccc(Cl)cc5Cl)CC4)ccc3C2=S)C(=O)N1` (centres unmarked) [GT-08604, 3-(5-((4-(2,4-dichlorophenyl)piperazin-1-yl)methyl)-1-thioxoisoindolin-2-yl)piperidine-2,6-dione], for which the “CK1α substrate protein remaining %” value on CK1α is given as “B (80%< substrate protein remaining %≤ 100%)”. For the same compound, at IKZF1, the “IKZF 1 substrate protein remaining %” value is “B (80%< substrate protein remaining %≤ 100%)”. Also, the “IKZF2 substrate protein remaining %” value on IKZF2 is “B (80%< substrate protein remaining %≤ 100%)”. Besides, at IKZF3, the “IKZF3 substrate protein remaining %” value is reported as “B (80%< substrate protein remaining %≤ 100%)”. Further, the “Wee1 substrate protein remaining %” value on WEE1 is listed as “B (80%< substrate protein remaining %≤ 100%)”. Also, the “GSPT1 substrate protein remaining %” value with GSPT1 is on record as “A (0% ≤ substrate protein remaining % ≤ 80%)”. In addition, in test [1], the inhibition at 0.5 µM lay in the range of 30 to 40% and the inhibition at 2 µM was 60 to 80%.
Consider `O=C1CCC(N2Cc3cc(CN4CCN(c5ccc(F)cc5F)CC4)ccc3C2=S)C(=O)N1` (centres unmarked) [GT-08613, 3-(5-((4-(2,4-difluorophenyl)piperazin-1-yl)methyl)-1-thioxoisoindolin-2-yl)piperidine-2,6-dione], for which the “CK1α substrate protein remaining %” value at CK1α is listed as “B (80%< substrate protein remaining %≤ 100%)”. On IKZF1, the “IKZF 1 substrate protein remaining %” value was “B (80%< substrate protein remaining %≤ 100%)”. The “IKZF2 substrate protein remaining %” value on IKZF2 is listed as “B (80%< substrate protein remaining %≤ 100%)”. At IKZF3, the “IKZF3 substrate protein remaining %” value is recorded as “B (80%< substrate protein remaining %≤ 100%)”. For the same compound, on WEE1, the “Wee1 substrate protein remaining %” value is “B (80%< substrate protein remaining %≤ 100%)”. In addition, the “GSPT1 substrate protein remaining %” value in the test on GSPT1 is on record as “A (0% ≤ substrate protein remaining % ≤ 80%)”. In test [1], the inhibition at 0.5 µM was in the range of 60 to 80% and the inhibition at 2 µM was 80 to 100%.
With `O=C1CCC(N2Cc3cc(CN4CCC(c5ccc(Br)cc5)CC4)ccc3C2=S)C(=O)N1` (centres unmarked) [GT-08618, 3-(5-((4-(4-bromophenyl)piperidin-1-yl)methyl)-1-thioxoisoindolin-2-yl)piperidine-2,6-dione], the “CK1α substrate protein remaining %” value on CK1α is “B (80%< substrate protein remaining %≤ 100%)”. For the same compound, on IKZF1, the “IKZF 1 substrate protein remaining %” value was “B (80%< substrate protein remaining %≤ 100%)”. Besides, the “IKZF2 substrate protein remaining %” value at IKZF2 is listed as “B (80%< substrate protein remaining %≤ 100%)”. Also, the “IKZF3 substrate protein remaining %” value at IKZF3 is recorded as “B (80%< substrate protein remaining %≤ 100%)”. Also, at WEE1, the “Wee1 substrate protein remaining %” value is “B (80%< substrate protein remaining %≤ 100%)”. Further, the “GSPT1 substrate protein remaining %” value in the test with GSPT1 was “A (0% ≤ substrate protein remaining % ≤ 80%)”. In test [1], the inhibition at 0.5 µM fell in the range of 30 to 40% and the inhibition at 2 µM was in the range of 60 to 80%.
Take `O=C1CCC(N2Cc3cc(CN4CCC(c5ccc(F)cc5)CC4)ccc3C2=S)C(=O)N1` (centres unmarked) [GT-08621, 3-(5-((4-(4-fluorophenyl)piperidin-1-yl)methyl)-1-thioxoisoindolin-2-yl)piperidine-2,6-dione]: the “CK1α substrate protein remaining %” value on CK1α is given as “B (80%< substrate protein remaining %≤ 100%)”. For the same compound, at IKZF1, the “IKZF 1 substrate protein remaining %” value is listed as “B (80%< substrate protein remaining %≤ 100%)”. The “IKZF2 substrate protein remaining %” value on IKZF2 is “A (0% ≤ substrate protein remaining % ≤ 80%)”. In addition, the “IKZF3 substrate protein remaining %” value at IKZF3 is recorded as “B (80%< substrate protein remaining %≤ 100%)”. The “Wee1 substrate protein remaining %” value on WEE1 is reported as “B (80%< substrate protein remaining %≤ 100%)”. Moreover, the “GSPT1 substrate protein remaining %” value in the test with GSPT1 is “A (0% ≤ substrate protein remaining % ≤ 80%)”. For the same compound, in test [1], the inhibition at 0.5 µM was in the range of 53 to 60% and the inhibition at 2 µM is 80 to 100%.

The record behind these values is patent EP4745135A1 (Gluetacs Therapeutics (Shanghai) Co., Ltd., priority 2023, dated 2025).
